Substitutions are numbered along the chain they refer to. Like-named read-outs stand apart in the source and are kept apart here.
Columns and labels:
Assay type in all cases: cell-based
[1] = target: T1, murine-derived wild-type (WT) GPR39 (Mus musculus, UniProt Q5U431); test: Calcium imaging on 293T cells transiently transfected with wild-type GPR39; conditions: transiently transfected HEK293T cells
T1 construct: 3HA (N); P2A-mCherry (C); expressed in transfected cells; host or cells: HEK293T, transient (Lipofectamine 3000)
T1 sequence (Q5U431 1-456): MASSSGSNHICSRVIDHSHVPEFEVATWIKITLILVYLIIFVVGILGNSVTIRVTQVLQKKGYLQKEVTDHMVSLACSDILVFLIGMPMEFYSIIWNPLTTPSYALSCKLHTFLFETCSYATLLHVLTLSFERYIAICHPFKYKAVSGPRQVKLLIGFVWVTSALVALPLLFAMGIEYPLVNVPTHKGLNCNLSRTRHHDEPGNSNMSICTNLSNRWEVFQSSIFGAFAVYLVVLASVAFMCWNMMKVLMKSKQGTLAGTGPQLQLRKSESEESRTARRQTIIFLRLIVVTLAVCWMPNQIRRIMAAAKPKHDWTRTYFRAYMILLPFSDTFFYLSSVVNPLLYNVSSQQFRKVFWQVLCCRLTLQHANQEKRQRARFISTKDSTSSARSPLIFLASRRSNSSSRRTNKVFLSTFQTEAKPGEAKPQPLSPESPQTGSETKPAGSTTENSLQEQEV
Description: (§1) In the present application, the bile acid and/or derivative thereof is capable of activating the GPR39 independent of a zinc ion binding site. For example, in some embodiments, murine-derived wild-type (WT) GPR39 or zinc ion binding site mutant (H17A and H19A) GPR39 are transiently expressed in 293T cells by using lipofectamine3000 transfection kit. The activation effect of LCAS on the wild-type (WT) and mutants (H17A and H19A) is detected by calcium imaging.
HEK293T cells were seeded in a PDL-coated 96-well plate (coring Co.) at an appropriate density (about 3×10^4 cells/well) and cultured under conditions of 37° C. and 5% CO2. 24 h after seeding, when the cell density reached 60%-70%, Lipofectamine 3000 (Invitrogen) was used for transfection, in which the concentration of plasmid transfection was 50 ng per well. […] 2) Zinc ions […] on the activation of mutants H17A and H19A of GPR39 by LCAS.

[2] = target: T2, zinc ion binding site mutant (H17A and H19A) GPR39 (Mus musculus, UniProt Q5U431, H17A/H19A); test: Calcium imaging on 293T cells transiently transfected with zinc ion binding site mutant GPR39; conditions: transiently transfected HEK293T cells
T2 construct: 3HA (N); P2A-mCherry (C); expressed in transfected cells; host or cells: HEK293T, transient (Lipofectamine 3000)
T2 sequence (Q5U431 1-456 H17A/H19A): T1 sequence (Q5U431 1-456) with H17A, H19A
Text: as §1
The pCMV6-3HA-mGPR39-P2A-mCherry vector carrying murine-derived GPR39 gene and having a total length of about 7 Kbp was selected as the PCR template, and a site-directed mutant vector was obtained by PCR site-directed mutagenesis. With the mutation site as the centre, a forward primer m39-H17A-F and a reverse primer m39-H17A-R were designed by extending approximately 15 bp each way, which sequences were respectively shown in Table 3 below. At 1 bp upstream of the mutation site, a 15 bp complementary sequence to the forward primer was designed, and the length of the reverse primer was designed to maintain the annealing temperature of the primer at 60° C. A high-fidelity DNA polymerase (Phanta Max Super-fidelity DNA polymerase, Vazyme) was used for site-directed PCR. 5 μL cutsmart buffer (NEB) and 1 μL restriction endonuclease DpnI (NEB) were added into the PCR product for overnight digestion, and then 10 μL of the product was transferred into 50 μL DH5α for heat shock transformation. The corresponding resistant solid LB medium was selected to coat and culture the product and enable it grow overnight at 37° C. A single colony was picked for inoculation, and the bacteria were shaken to extract the plasmid which was verified by sequencing. A monoclonal vector which had been sequenced to be correct was selected and marked as pCMV6-3HA-mGPR39(H17A&H19A)-P2A-mCherry, which structure was shown in FIG. 5.
HEK293T cells were seeded in a PDL-coated 96-well plate (coring Co.) at an appropriate density (about 3×10^4 cells/well) and cultured under conditions of 37° C. and 5% CO2. […]

[3] = target: T3, human GPR39 receptors on human GPR39-2 cell lines (Homo sapiens, UniProt O43194); test: FLIPR calcium imaging on human GPR39-2 cell line stably expressing human GPR39; conditions: for EC50: human GPR39-2 cells
T3 construct: P2A-mCherry (C)
T3 sequence (O43194 1-453): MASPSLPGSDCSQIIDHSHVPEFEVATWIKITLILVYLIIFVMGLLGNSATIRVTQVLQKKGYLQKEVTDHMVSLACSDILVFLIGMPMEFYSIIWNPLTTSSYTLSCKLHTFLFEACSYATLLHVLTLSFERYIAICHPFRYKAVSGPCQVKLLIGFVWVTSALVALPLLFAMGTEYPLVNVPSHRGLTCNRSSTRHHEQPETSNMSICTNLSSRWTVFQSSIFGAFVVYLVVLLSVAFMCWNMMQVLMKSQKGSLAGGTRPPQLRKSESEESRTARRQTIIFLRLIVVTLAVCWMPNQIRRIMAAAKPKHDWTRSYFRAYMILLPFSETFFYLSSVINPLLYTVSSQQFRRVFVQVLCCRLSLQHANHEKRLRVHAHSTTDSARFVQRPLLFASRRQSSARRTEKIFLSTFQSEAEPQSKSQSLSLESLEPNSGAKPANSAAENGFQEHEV
Text: The human GPR39 cDNA vector was purchased from WZ Biosciences Inc., Shandong. It was cloned onto a lentiviral vector PLVXK-hGPR39-P2A-mCherry (FIG. 10) through PCR amplification using primers hGPR39-F (which sequence was shown as set forth in SEQshown as set forth in SEQ ID NO: 15) and hGPR39-R (which sequence was shown as set forth in SEQ shown as set forth in SEQ ID NO: 16), in which the sequence of the target gene human GPR39 cDNA was shown as set forth in SEQ shown as set forth in SEQ ID NO: 14. A cell line human GPR39-2 stably expressing human GPR39 gene was constructed according to the method of Example 1.

| EC50 ([3]; no added zinc ions, read-out: EC50 Only agonist) | Compound | EC50 ([1]; + 4 μM zinc ions) | EC50 ([1]; agonist alone) | EC50 ([2]; + 4 μM zinc ions) | EC50 ([2]; agonist alone) | EC50 ([3]; EC50 Agonist + 4 μM zinc ions, 4 μM zinc ions) | intracellular calcium signal response of human GPR39-2 ([3]; FIG. 9) |
| --- | --- | --- | --- | --- | --- | --- | --- |
| – | C[C@H](CCC(=O)O)[C@H]1CC[C@H]2[C@@H]3CC[C@@H]4C[C@H](OS(=O)(=O)O)CC[C@]4(C)[C@H]3CC[C@]12C [LCAS] | 5.2 ± 0.7 µM | 33.1 ± 5.1 µM | 8.7 ± 0.8 µM | 24 ± 0.8 µM | 0.97 ± 0.3 µM | capable of inducing intracellular calcium signal response |
| 12 ± 2.8 µM | [Zn+2] [Zinc ions, reference compound] | – | 12 ± 5.3 µM | – | > 100 µM | – | – |
